In the test the target is Histamine H4 receptor (Homo sapiens, UniProt Q9H3N8). The test is described as follows: Displacement of [3H]histamine from human histamine H4 receptor expressed in CHO cells after 90 mins by scintillation counting technique.

Drawing on BindingDB's records for doi:10.1016/j.bmcl.2011.07.114 (Pfizer, 2011), this text covers Ki for 2 compounds.

The structures appear in SMILES notation. pKi: −log10 of the molar value.

Histamine H4 receptor, sequence (Q9H3N8 whole entry): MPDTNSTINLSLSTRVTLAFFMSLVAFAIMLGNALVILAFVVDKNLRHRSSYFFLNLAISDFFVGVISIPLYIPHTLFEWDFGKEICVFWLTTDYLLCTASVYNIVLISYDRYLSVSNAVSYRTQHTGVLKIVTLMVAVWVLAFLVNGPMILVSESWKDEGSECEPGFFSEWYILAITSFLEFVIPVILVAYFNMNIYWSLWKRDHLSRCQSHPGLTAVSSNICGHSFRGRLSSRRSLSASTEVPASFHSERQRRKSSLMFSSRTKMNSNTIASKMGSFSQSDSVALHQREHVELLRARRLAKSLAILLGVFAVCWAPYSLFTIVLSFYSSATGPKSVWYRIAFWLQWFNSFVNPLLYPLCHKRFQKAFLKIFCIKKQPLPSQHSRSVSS

`CC(C)(C)CCNc1cc(N[C@H]2CCN(Cc3cccc(F)c3O)C2)ncn1` showed a pKi of 4.70.
For the compound `COCc1ccc(CN2CC[C@H](Nc3cc(NCCC(C)(C)C)ncn3)C2)o1`, the pKi is 4.70.

The term pKi denotes −log10 of the Ki, conventionally taken in molar units.
